Measured values taken from PubChem BioAssay AID1259407 (Chemical Carcinogenesis Research Information System (CCRIS), 2018).
The source made the active and inactive calls. How the calls were made is not given here.

System: CCRIS mutagenicity, Ames/micronucleus/aberration tests
Assay: CCRIS mutagenicity studies
Description: The CCRIS database contains chemical records with carcinogenicity, mutagenicity, tumor promotion, and tumor inhibition test results. It was developed by the National Cancer Institute (NCI). Data are derived from studies cited in primary journals, current awareness tools, NCI reports, and other sources. Test results have been reviewed by experts in carcinogenesis and mutagenesis.
CCRIS provides historical information from the years 1985 - 2011. It is no longer updated.
This is an archive assay for CCRIS mutagenicity studies.

[1] = Test System: AMES SALMONELLA TYPHIMURIUM, Strain/Indicator: TA98, Metabolic Activation: NONE, Method: STANDARD PLATE
[2] = Test System: AMES SALMONELLA TYPHIMURIUM, Strain/Indicator: TA100, Metabolic Activation: NONE, Method: STANDARD PLATE

In the case of `S=c1nc[nH]c2nc[nH]c12`, the mutagenic call (End Point: IN VITRO MICRONUCLEUS, Test System: CHL/IU CELLS, Metabolic Activation: NONE) is reported as “active; positive”, the mutagenic call (End Point: IN VITRO MICRONUCLEUS, Test System: CHO CELLS, Metabolic Activation: RAT, LIVER, S-9, AROCLOR 1254) is reported as “inactive; negative” and the mutagenic call (Test System: AMES SALMONELLA TYPHIMURIUM, Strain/Indicator: TA97, Metabolic Activation: HAMSTER, LIVER, S-9, AROCLOR 1254 (30%), Method: PREINCUBATION) is reported as “inactive; negative”. The mutagenic call (Test System: AMES SALMONELLA TYPHIMURIUM, Strain/Indicator: TA97, Metabolic Activation: NONE, Method: PREINCUBATION) was “inactive; negative”, the mutagenic call (Test System: AMES SALMONELLA TYPHIMURIUM, Strain/Indicator: TA97, Metabolic Activation: NONE, Method: STANDARD PLATE) was “inactive; negative” and the mutagenic call (Test System: AMES SALMONELLA TYPHIMURIUM, Strain/Indicator: TA97, Metabolic Activation: RAT, LIVER, S-9, AROCLOR 1254 (30%), Method: PREINCUBATION) was “inactive; negative”. The mutagenic call (Test System: AMES SALMONELLA TYPHIMURIUM, Strain/Indicator: TA97, Metabolic Activation: RAT, LIVER, S-9, PHENOBARBITAL AND ALPHA-NAPHTHOFLAVONE, Method: STANDARD PLATE) was “inactive; negative”, the mutagenic call (Test System: AMES SALMONELLA TYPHIMURIUM, Strain/Indicator: TA98, Metabolic Activation: HAMSTER, LIVER, S-9, AROCLOR 1254 (30%), Method: PREINCUBATION) was “inactive; negative” and the mutagenic call (Test System: AMES SALMONELLA TYPHIMURIUM, Strain/Indicator: TA98, Metabolic Activation: NONE, Method: PREINCUBATION) was “inactive; negative”. For the same compound, the mutagenic call (Test System: AMES SALMONELLA TYPHIMURIUM, Strain/Indicator: TA98, Metabolic Activation: NONE, Method: SPIRAL ASSAY) was “inactive; negative”, the mutagenic call [1] was “inactive; negative” and the mutagenic call (Test System: AMES SALMONELLA TYPHIMURIUM, Strain/Indicator: TA98, Metabolic Activation: RAT, LIVER, S-9, AROCLOR 1254 (30%), Method: PREINCUBATION) was “inactive; negative”. The mutagenic call (Test System: AMES SALMONELLA TYPHIMURIUM, Strain/Indicator: TA98, Metabolic Activation: RAT, LIVER, S-9, AROCLOR 1254, Method: SPIRAL ASSAY) was “inactive; negative”, the mutagenic call (Test System: AMES SALMONELLA TYPHIMURIUM, Strain/Indicator: TA98, Metabolic Activation: RAT, LIVER, S-9, AROCLOR 1254, Method: STANDARD PLATE) was “inactive; negative” and the mutagenic call (Test System: AMES SALMONELLA TYPHIMURIUM, Strain/Indicator: TA98, Metabolic Activation: RAT, LIVER, S-9, PHENOBARBITAL AND ALPHA-NAPHTHOFLAVONE, Method: STANDARD PLATE) was “inactive; negative”. For the same compound, the mutagenic call (Test System: AMES SALMONELLA TYPHIMURIUM, Strain/Indicator: TA100, Metabolic Activation: HAMSTER, LIVER, S-9, AROCLOR 1254 (30%), Method: PREINCUBATION) was “inactive; negative”, the mutagenic call (Test System: AMES SALMONELLA TYPHIMURIUM, Strain/Indicator: TA100, Metabolic Activation: NONE, Method: PREINCUBATION) was “inactive; negative” and the mutagenic call (Test System: AMES SALMONELLA TYPHIMURIUM, Strain/Indicator: TA100, Metabolic Activation: NONE, Method: SPIRAL ASSAY) was “inactive; negative”. The mutagenic call (Test System: AMES SALMONELLA TYPHIMURIUM, Strain/Indicator: TA100, Metabolic Activation: RAT, LIVER, S-9, AROCLOR 1254 (30%), Method: PREINCUBATION) was “inactive; negative”, the mutagenic call (Test System: AMES SALMONELLA TYPHIMURIUM, Strain/Indicator: TA100, Metabolic Activation: RAT, LIVER, S-9, AROCLOR 1254, Method: SPIRAL ASSAY) was “inactive; negative” and the mutagenic call (Test System: AMES SALMONELLA TYPHIMURIUM, Strain/Indicator: TA100, Metabolic Activation: RAT, LIVER, S-9, AROCLOR 1254, Method: STANDARD PLATE) was “inactive; negative”. The mutagenic call (Test System: AMES SALMONELLA TYPHIMURIUM, Strain/Indicator: TA100, Metabolic Activation: RAT, LIVER, S-9, PHENOBARBITAL AND ALPHA-NAPHTHOFLAVONE, Method: STANDARD PLATE) was “inactive; negative”, the mutagenic call (Test System: AMES SALMONELLA TYPHIMURIUM, Strain/Indicator: TA102, Metabolic Activation: NONE, Method: STANDARD PLATE) was “inactive; negative” and the mutagenic call (Test System: AMES SALMONELLA TYPHIMURIUM, Strain/Indicator: TA1535, Metabolic Activation: HAMSTER, LIVER, S-9, AROCLOR 1254 (30%), Method: PREINCUBATION) was “active; positive”. For the same compound, the mutagenic call (Test System: AMES SALMONELLA TYPHIMURIUM, Strain/Indicator: TA1535, Metabolic Activation: NONE, Method: PREINCUBATION) was “active; positive”, the mutagenic call (Test System: AMES SALMONELLA TYPHIMURIUM, Strain/Indicator: TA1535, Metabolic Activation: NONE, Method: SPIRAL ASSAY) was “active; positive” and the mutagenic call (Test System: AMES SALMONELLA TYPHIMURIUM, Strain/Indicator: TA1535, Metabolic Activation: NONE, Method: STANDARD PLATE) was “active; positive”. The mutagenic call (Test System: AMES SALMONELLA TYPHIMURIUM, Strain/Indicator: TA1535, Metabolic Activation: RAT, LIVER, S-9, AROCLOR 1254 (30%), Method: PREINCUBATION) was “active; positive”, the mutagenic call (Test System: AMES SALMONELLA TYPHIMURIUM, Strain/Indicator: TA1535, Metabolic Activation: RAT, LIVER, S-9, AROCLOR 1254, Method: SPIRAL ASSAY) was “active; positive” and the mutagenic call (Test System: AMES SALMONELLA TYPHIMURIUM, Strain/Indicator: TA1535, Metabolic Activation: RAT, LIVER, S-9, AROCLOR 1254, Method: STANDARD PLATE) was “active; positive”. The mutagenic call (Test System: AMES SALMONELLA TYPHIMURIUM, Strain/Indicator: TA1535, Metabolic Activation: RAT, LIVER, S-9, PHENOBARBITAL AND ALPHA-NAPHTHOFLAVONE, Method: STANDARD PLATE) was “active; positive”, the mutagenic call (Test System: AMES SALMONELLA TYPHIMURIUM, Strain/Indicator: TA1537, Metabolic Activation: NONE, Method: SPIRAL ASSAY) was “inactive; negative” and the mutagenic call (Test System: AMES SALMONELLA TYPHIMURIUM, Strain/Indicator: TA1537, Metabolic Activation: NONE, Method: STANDARD PLATE) was “inactive; negative”. The mutagenic call (Test System: AMES SALMONELLA TYPHIMURIUM, Strain/Indicator: TA1537, Metabolic Activation: RAT, LIVER, S-9, AROCLOR 1254, Method: SPIRAL ASSAY) was “inactive; negative”, the mutagenic call (Test System: AMES SALMONELLA TYPHIMURIUM, Strain/Indicator: TA1537, Metabolic Activation: RAT, LIVER, S-9, AROCLOR 1254, Method: STANDARD PLATE) was “inactive; negative” and the mutagenic call (Test System: CHINESE HAMSTER V-79, Strain/Indicator: V-79/6-THIOGUANINE, Metabolic Activation: NONE, Method: SUSPENSION/PLATE) was “active; positive”. The mutagenic call (Test System: CHINESE HAMSTER V-79, Strain/Indicator: V-79/6-THIOGUANINE, Metabolic Activation: RAT, LIVER, HEPATOCYTES, Method: SUSPENSION/PLATE) was “active; positive”, the mutagenic call (Test System: E. COLI, Strain/Indicator: WP2 (HCR), Metabolic Activation: NONE, Method: STANDARD PLATE) was “inactive; negative” and the mutagenic call (Test System: UDS RAT HEPATOCYTES, Strain/Indicator: THY INCORP, Metabolic Activation: NONE, Method: AUTORADIOGRAPHY (SERUM-FREE MEDIA)) was “inactive; negative”.

With `Cn1c2ccccc2c2ccc([N+](=O)[O-])cc21` the mutagenic call [1] was “active; positive”, the mutagenic call (Test System: AMES SALMONELLA TYPHIMURIUM, Strain/Indicator: TA98, Metabolic Activation: RAT LIVER S-9, AROCLOR 1254, Method: STANDARD PLATE) was “active; positive” and the mutagenic call [2] was “active; positive”. The mutagenic call (Test System: AMES SALMONELLA TYPHIMURIUM, Strain/Indicator: TA100, Metabolic Activation: RAT LIVER S-9, AROCLOR 1254, Method: STANDARD PLATE) was “active; positive”.

With `O=S1(=O)c2cccc3ccc4c5ccccc5cc1c4c23` the mutagenic call [1] was “active; positive”, the mutagenic call (Test System: AMES SALMONELLA TYPHIMURIUM, Strain/Indicator: TA98, Metabolic Activation: RAT, LIVER, S-9, AROCLOR 1254 (10%), Method: STANDARD PLATE) was “active; positive” and the mutagenic call [2] was “active; positive”. The mutagenic call (Test System: AMES SALMONELLA TYPHIMURIUM, Strain/Indicator: TA100, Metabolic Activation: RAT, LIVER, S-9, AROCLOR 1254 (10%), Method: STANDARD PLATE) was “active; positive”.
